One test concerns the target T1, BRD4 BD1 (Homo sapiens, UniProt O60885).
T1 construct: HEK293 cells were transfected using NanoLuc-BRD4-BD1 or NanoLuc-BRD4-BD2 fusion vectors
In words: NanoBRET bromodomain assay, NanoLuc-BRD4-BD1 in HEK293 cells. Type of test: binding. How it is done:
Exemplary compounds of the disclosure are active against BRD4 BD2 and selective over BRD4 BD1. BRD4 is a representative example of the BET family, as the binding sites of all BET family members are structurally similar. […] IC50s and fold selectivity's are determined as described below and are represented in Table 1.
(§1) Plates were then incubated at 37° C.+5% CO2 incubator for 2 hours.
(§2) Fold Selectivity Calculated (IC50 BD1/IC50 BD2).

A further test deals with T2, BRD4 BD2 (Homo sapiens, UniProt O60885).
T2 construct: HEK293 cells were transfected using NanoLuc-BRD4-BD1 or NanoLuc-BRD4-BD2 fusion vectors
Nature of the test: NanoBRET bromodomain assay, NanoLuc-BRD4-BD2 in HEK293 cells. It is filed as binding. The note with it: for Fold Selectivity BRD4 BD1/BD2: IC50 BD1/IC50 BD2, qualitative if an IC50 is at the upper limit. The method, then: as §1, §2
On the technique in general: BRET reads energy transfer from a luciferase to a nearby fluorophore.

pIC50: −log10 of the molar value. A value given as a limit tells only on which side of the number the result lay.

On BRD4 BD1, `CN1CCC(n2cc(-c3ccccc3)c(-c3cn(C)c(=O)c4[nH]c(-c5cnn(C(F)(F)F)c5)cc34)cc2=O)CC1` [Example 63, 6-methyl-4-(1-(1-methylpiperidin-4-yl)-2-oxo-5-phenyl-1,2-dihydropyridin-4-yl)-2-(1-(trifluoromethyl)-1H-pyrazol-4-yl)-1,6-dihydro-7H-pyrrolo[2,3-c]pyridin-7-one] had a negative logarithm of the IC50 (pIC50) of 6.00 to 6.30. Also, on BRD4 BD2, the pIC50 is over 8.00; the “Fold Selectivity BRD4 BD1/BD2” value was “xx (Fold >50 and ≤200)”.
At BRD4 BD1, `COc1cccc(-c2cc3c(-c4cc(=O)n(C)cc4Oc4c(C)cccc4C)cn(C)c(=O)c3[nH]2)c1F` [Example 56, 4-(5-(2,6-dimethylphenoxy)-1-methyl-2-oxo-1,2-dihydropyridin-4-yl)-2-(2-fluoro-3-methoxyphenyl)-6-methyl-1,6-dihydro-7H-pyrrolo[2,3-c]pyridin-7-one] had a negative-log IC50 (pIC50) of under 6.00. Moreover, on BRD4 BD2, the pIC50 was over 8.00 and the “Fold Selectivity BRD4 BD1/BD2” value was “xxxx (Fold >1000)”.
For `Cn1cc(-c2cccc(COC(F)(F)F)c2)c(-c2cn(C)c(=O)c3[nH]c(-c4cnn(C(F)(F)F)c4)cc23)cc1=O` [Example 17, 6-methyl-4-(1-methyl-2-oxo-5-(3-((trifluoromethoxy)methyl)phenyl)-1,2-dihydropyridin-4-yl)-2-(1-(trifluoromethyl)-1H-pyrazol-4-yl)-1,6-dihydro-7H-pyrrolo[2,3-c]pyridin-7-one] the same measures were under 6.00, over 8.00 and “xxxx (Fold >1000)”.
On to `Cc1cccc(C)c1Oc1cn(C)c(=O)cc1-c1cn(C)c(=O)c2[nH]c(-c3cc(F)c(F)cc3F)cc12` [Example 88], for which, on BRD4 BD1, the pIC50 is under 6.00. Moreover, at BRD4 BD2, the pIC50 is 7.30 to 8.00; the “Fold Selectivity BRD4 BD1/BD2” value was “xxx (Fold >200 and ≤1000)”.
Regarding `Cn1cc(-c2ccccc2)c(-c2cn(C)c(=O)c3[nH]c(-c4ccc(F)cc4F)cc23)cc1=O` [Example 43, 2-(2,4-difluorophenyl)-6-methyl-4-(1-methyl-2-oxo-5-phenyl-1,2-dihydropyridin-4-yl)-1,6-dihydro-7H-pyrrolo[2,3-c]pyridin-7-one], the pIC50 against BRD4 BD1 is under 6.00; at BRD4 BD2, over 8.00. Besides, at BRD4 BD2, the “Fold Selectivity BRD4 BD1/BD2” value is recorded as “xxxx (Fold >1000)”.
`Cn1cc(-c2ccccc2)c(-c2cn(C)c(=O)c3[nH]c(-c4ccc(S(C)(=O)=O)cc4)cc23)cc1=O` [Example 45, 6-methyl-4-(1-methyl-2-oxo-5-phenyl-1,2-dihydropyridin-4-yl)-2-(4-(methylsulfonyl)phenyl)-1,6-dihydro-7H-pyrrolo[2,3-c]pyridin-7-one]: on BRD4 BD1, the pIC50 is under 6.00. Moreover, at BRD4 BD2, the pIC50 is over 8.00 and the “Fold Selectivity BRD4 BD1/BD2” value is recorded as “xxxx (Fold >1000)”.
For `Cc1cc(-c2cc3c(-c4cc(=O)n(C)cc4-c4ccc(F)cc4)cn(C)c(=O)c3[nH]2)cc(C)n1.Cl` [Example 30, 2-(2,6-dimethylpyridin-4-yl)-4-(5-(4-fluorophenyl)-1-methyl-2-oxo-1,2-dihydropyridin-4-yl)-6-methyl-1,6-dihydro-7H-pyrrolo[2,3-c]pyridin-7-one hydrochloride] the same measures were under 6.00, over 8.00 and “xxxx (Fold >1000)”.
Turning to `Cc1cccc(C)c1Oc1cn(C)c(=O)cc1-c1cn(C)c(=O)c2[nH]c(-c3ccc(F)c(F)c3F)cc12` [Example 93], the pIC50 at BRD4 BD1 is under 6.00; on BRD4 BD2, 6.70 to 7.30. The “Fold Selectivity BRD4 BD1/BD2” value at BRD4 BD2 was “xx (Fold >50 and ≤200)”.
For `Cn1cc(-c2ccccc2)c(-c2cn(C)c(=O)c3[nH]c(-c4cnn(C(F)(F)F)c4)c(Cl)c23)cc1=O` [Example 10, 3-chloro-6-methyl-4-(1-methyl-2-oxo-5-phenyl-1,2-dihydropyridin-4-yl)-2-(1-(trifluoromethyl)-1H-pyrazol-4-yl)-1,6-dihydro-7H-pyrrolo[2,3-c]pyridin-7-one], on BRD4 BD1, the negative logarithm of the IC50 (pIC50) is under 6.00. On BRD4 BD2, the pIC50 is 7.30 to 8.00; the “Fold Selectivity BRD4 BD1/BD2” value was “xxx (Fold >200 and ≤1000)”.
Take `Cn1cc(-c2cccnc2)c(-c2cn(C)c(=O)c3[nH]c(-c4ccc(F)cc4F)cc23)cc1=O` [Example 37, 2-(2,4-difluorophenyl)-6-methyl-4-(1-methyl-6-oxo-1,6-dihydro-[3,3′-bipyridin]-4-yl)-1,6-dihydro-7H-pyrrolo[2,3-c]pyridin-7-one]: the pIC50 against BRD4 BD1 is under 6.00; against BRD4 BD2 it was 7.30 to 8.00. Further, on BRD4 BD2, the “Fold Selectivity BRD4 BD1/BD2” value was “xxx (Fold >200 and ≤1000)”.
Take `Cc1cccc(C)c1Oc1cn(C)c(=O)cc1-c1cn(C)c(=O)c2[nH]c(-c3cccc(C(F)F)c3F)cc12` [Example 95]: the negative-log IC50 (pIC50) at BRD4 BD1 is under 6.00. Also, at BRD4 BD2, the pIC50 is 6.70 to 7.30; the “Fold Selectivity BRD4 BD1/BD2” value was “xx (Fold >50 and ≤200)”.
Turning to `Cn1cc(-c2cc(=O)n(C3CC3)cc2-c2ccccc2)c2cc(-c3ccccc3F)[nH]c2c1=O` [Example 47, 4-(1-cyclopropyl-2-oxo-5-phenyl-1,2-dihydropyridin-4-yl)-2-(2-fluorophenyl)-6-methyl-1,6-dihydro-7H-pyrrolo[2,3-c]pyridin-7-one], the pIC50 is under 6.00 on BRD4 BD1 and over 8.00 against BRD4 BD2. Moreover, the “Fold Selectivity BRD4 BD1/BD2” value at BRD4 BD2 is recorded as “xxxx (Fold >1000)”.
On to `Cn1cc(-c2cccnc2)c(-c2cn(C)c(=O)c3[nH]c(-c4cnn(C(F)(F)F)c4)cc23)cc1=O` [Example 66, 6-methyl-4-(1-methyl-6-oxo-1,6-dihydro-[3,3′-bipyridin]-4-yl)-2-(1-(trifluoromethyl)-1H-pyrazol-4-yl)-1,6-dihydro-7H-pyrrolo[2,3-c]pyridin-7-one], for which the negative logarithm of the IC50 (pIC50) on BRD4 BD1 was under 6.00; on BRD4 BD2 it was 6.00 to 6.70. In addition, on BRD4 BD2, the “Fold Selectivity BRD4 BD1/BD2” value was “x (Fold >2 and ≤50)”.
For the compound `Cc1cccc(-c2cc3c(-c4cc(=O)n(C)cc4Oc4c(C)cccc4C)cn(C)c(=O)c3[nH]2)c1F` [Example 99], the negative logarithm of the IC50 (pIC50) against BRD4 BD1 is under 6.00. Besides, on BRD4 BD2, the negative logarithm of the IC50 (pIC50) is 7.30 to 8.00; the “Fold Selectivity BRD4 BD1/BD2” value is “xxx (Fold >200 and ≤1000)”.
Regarding `Cn1cc(-c2cccnc2)c(-c2cn(C)c(=O)c3[nH]c(-c4cnn(C(F)(F)F)c4)c(F)c23)cc1=O` [Example 67, 3-fluoro-6-methyl-4-(1-methyl-6-oxo-1,6-dihydro-[3,3′-bipyridin]-4-yl)-2-(1-(trifluoromethyl)-1H-pyrazol-4-yl)-1,6-dihydro-7H-pyrrolo[2,3-c]pyridin-7-one], the pIC50 against BRD4 BD1 was under 6.00. Also, on BRD4 BD2, the pIC50 is 7.30 to 8.00; the “Fold Selectivity BRD4 BD1/BD2” value is “xxx (Fold >200 and ≤1000)”.
With `Cn1cc(-c2cc(=O)n(CCO)cc2-c2ccccc2)c2cc(-c3cnn(C(F)(F)F)c3)[nH]c2c1=O` [Example 60, 4-(1-(2-hydroxyethyl)-2-oxo-5-phenyl-1,2-dihydropyridin-4-yl)-6-methyl-2-(1-(trifluoromethyl)-1H-pyrazol-4-yl)-1,6-dihydro-7H-pyrrolo[2,3-c]pyridin-7-one], the negative logarithm of the IC50 (pIC50) against BRD4 BD1 was under 6.00. On BRD4 BD2, the pIC50 was 7.30 to 8.00; the “Fold Selectivity BRD4 BD1/BD2” value was “xxx (Fold >200 and ≤1000)”.
As for `Cn1cc(-c2cc(=O)n(CCOC(F)F)cc2-c2ccccc2)c2cc(-c3cnn(C(F)(F)F)c3)[nH]c2c1=O` [Example 22, 4-(1-(2-(difluoromethoxy)ethyl)-2-oxo-5-phenyl-1,2-dihydropyridin-4-yl)-6-methyl-2-(1-(trifluoromethyl)-1H-pyrazol-4-yl)-1,6-dihydro-7H-pyrrolo[2,3-c]pyridin-7-one], the results for the negative logarithm of the IC50 (pIC50) on BRD4 BD1 and on BRD4 BD2 were under 6.00 and over 8.00, respectively. In addition, the “Fold Selectivity BRD4 BD1/BD2” value on BRD4 BD2 is listed as “xxxx (Fold >1000)”.

What is called pIC50 is −log10 of the IC50, conventionally taken in molar units. The low end stands for a high IC50, the high end for a low IC50.

(Values after patent publication US20260217701A1, “SELECTIVE BET INHIBITORS AND USES THEREOF” (Tay Therapeutics Limited, priority 2022, published 2026).)
